This note sets out measurements from patent publication US20250318521A1, “COMBINATION FOR REDUCING PHYTOTOXICITY OF SYSTEMIC FUNGICIDES IN CROPS AND RELATED METHODS” (UPL Mauritius Limited, priority 2024, published 2025).

The test system of this series is soyabean crop. Description: Evaluation of % damage in soyabean crop using safener (prothioconazole phytotoxicity reduction). From the text:
A 480 SC (suspension concentrate) formulation of prothioconazole was used. The application amount of prothioconazole was high in an amount of 350 g ai/ha.
A 480 SC (suspension concentrate) formulation of prothioconazole was used. The application amount of prothioconazole was lower in an amount of 175 g ai/ha.

On to mancozeb, for which the “% Damage” value stood at 15.0% (prothioconazole 175 g ai/ha (480 SC) + safener 560 g ai/ha, ratio 1:3.2); 18.0% (prothioconazole 175 g ai/ha (480 SC) + safener 1120 g ai/ha, ratio 1:6.4); 11.7% (prothioconazole 175 g ai/ha (480 SC) + safener 1680 g ai/ha, ratio 1:9.6); 32.5% (prothioconazole 350 g ai/ha (480 SC) + safener 560 g ai/ha, ratio 1:1.6); 21.7% (prothioconazole 350 g ai/ha (480 SC) + safener 1120 g ai/ha, ratio 1:3.2); 19.2% (prothioconazole 350 g ai/ha (480 SC) + safener 1680 g ai/ha, ratio 1:4.8).
